Entries after “also recorded” stand apart in the source; their conditions may differ.
Biological target: T1, NR1H3 (Homo sapiens, UniProt Q13133)
T1 construct: amplification of the complete open reading frame from ATG start codon to the stop codon of drugable genes; expressed in transfected cells; host or cells: primary human mesenchymal progenitor cells (MPCs), transduced with Ad5-NR1H3 and Ad-hCAR
T1 sequence (Q13133 1-447): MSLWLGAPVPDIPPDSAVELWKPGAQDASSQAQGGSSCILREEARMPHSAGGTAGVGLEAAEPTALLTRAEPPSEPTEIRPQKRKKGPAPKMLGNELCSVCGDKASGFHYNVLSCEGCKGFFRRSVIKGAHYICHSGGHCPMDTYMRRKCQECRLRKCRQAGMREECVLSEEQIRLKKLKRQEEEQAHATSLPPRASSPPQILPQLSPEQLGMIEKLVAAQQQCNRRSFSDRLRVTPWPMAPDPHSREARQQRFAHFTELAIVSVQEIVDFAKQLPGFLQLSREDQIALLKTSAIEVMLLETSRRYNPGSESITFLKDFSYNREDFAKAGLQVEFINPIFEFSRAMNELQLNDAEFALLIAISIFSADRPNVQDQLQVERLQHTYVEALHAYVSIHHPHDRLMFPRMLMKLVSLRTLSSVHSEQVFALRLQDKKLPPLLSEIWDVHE
Assay: AP assay: MPCs infected with Ad-NR1H3 and treated with ligand
Type: cell-based
Conditions: for up-regulation of endogenous alkaline phosphatase (AP) activity, dose-response: MPCs infected with Ad-NR1H3, ligand at different concentrations
Experimental: Mesenchymal progenitor cells (MPCs) differentiate into osteoblasts in the presence of appropriate factors (e.g. BMP2). An assay to screen for such factors is developed by monitoring the activity of alkaline phosphatase (AP) enzyme, an early marker in the osteoblast differentiation program. MPCs are seeded in 384 well plates and simultaneously co-infected one day later with adenoviruses encoding the human coxsackie and adenovirus receptor (hCAR; Ad-hCAR) and individual adenoviruses (Ad-cDNA) from the arrayed adenoviral knock-in collection containing cDNA sequences corresponding to genes from “drugable” classes like GPCR's, kinases, proteases, phosphodiesterases and nuclear hormone receptors (the FLeXSelect collection). The majority of these cDNAs are obtained by a PCR-based approach. Briefly, PCR primers are designed for amplification of the complete open reading frame from ATG start codon to the stop codon of drugable genes, based on sequence data present in the RefSeq database. Primers are mixed in an arrayed format at a PCR ready concentration in 96 well plates. As a template for the PCR reactions, placental, fetal liver, fetal brain and spinal cord cDNA libraries are used (from Invitrogen or Edge Biosystems). For the genes encoded by a single exon, PCR reactions are also performed on human genomic DNA. After the amplification reactions, the PCR products are purified with a 96-well PCR clean-up system (Wizard magnesil, Promega, Madison, Wis., USA), digested with the appropriate restriction enzymes (AscI, NotI or SalI restriction sites are included in the primers) and directly cloned into the adenoviral adapter plasmid pIspAdAdapt-10-Zeo (described in U.S. Pat. No. 6,340,595) using DNA ligation kit version 2 (TaKaRa, Berkeley, CA, USA). After a transformation and selection step, multiple clones per gene, one of which is sequence verified, are used for the preparation of plasmid DNA and subsequent generation of adenovirus according to the procedure described in WO99/64582.
Cellular AP activity is determined 6 days after the infection (or ligand addition—see below). The principle of the assays is depicted in FIG. 2. […] Six days after the start of infection or treatment with a ligand, endogenous alkaline phosphatase activity is measured following addition of 4-methylumbelliferyl […] (MUP) substrate.
The stocks of the Ad-control-viruses are generated in 96 well plates (control plate). […] Up-regulation of alkaline phosphatase is read at 6 days post infection (6 dpi): 15 μl 4-Methylumbelliferyl-phosphate (MUP, Sigma) is added to each well, the plates are incubated for 15 min at 37° C. and monitored for AP activity using a fluorescence plate reader (Fluostar, BMG). […]

Compound	up-regulation of endogenous alkaline phosphatase (AP) activity, dose-response	induction of AP activity in different MPC isolates (MPCs from 4 different donors, Ad-NR1H3 MOI 2500 + T0901317, 6 days)
CC(=O)Oc1ccc2c(c1)[C@@]1(C)CCC[C@](C)(C(=O)OC(=O)[C@@]3(C)CCC[C@]4(C)c5cc(OC(C)=O)ccc5CC[C@@H]34)[C@@H]1CC2 [APD, acetyl podocarpic dimer]	dose-response relation is observed; also recorded: AP activity is up-regulated; also recorded: Dose-dependent up-regulation of AP activity	–
O=C(O)Cc1cccc(OCCCN(Cc2cccc(C(F)(F)F)c2Cl)CC(c2ccccc2)c2ccccc2)c1 [GW3965, 2-(3-(3-(N-(2-chloro-3-(trifluoromethyl)benzyl)-N-(2,2-diphenylethyl)amino)propoxy)phenyl)acetic acid]	dose-response relation is observed; also recorded: AP activity is up-regulated; also recorded: Dose-dependent up-regulation of AP activity	–
O=S(=O)(c1ccccc1)N(CC(F)(F)F)c1ccc(C(O)(C(F)(F)F)C(F)(F)F)cc1 [T0901317, N-(2,2,2-trifluoroethyl)-N-[4-[2,2,2-trifluoro-1-hydroxy-1-(trifluoromethyl)ethyl]phenyl]-benzenesulfonamide]	dose-dependently increase the up-regulation of the endogenous alkaline phosphatase activity; also recorded: AP activity is up-regulated; also recorded: score well	induce AP activity to similar extents in all 4 MPC isolates tested; also recorded: induce AP activity independent of the MPC isolate
